In patent US20240158446A1, “CYCLIC COMPOUND HAVING SELECTIVE INHIBITORY ACTION ON KRAS OVER HRAS AND NRAS” (CHUGAI SEIYAKU KABUSHIKI KAISHA, priority 2021, published 2024):
Where two headings read alike, the source gives them in different places. *1 amine or outer side, *2 acyl side, *3 side chain or, on linkers, in order; H or OH if unused. Where a SMILES comes first, the peptide text is derived from it. Bridges are numbered along the chain shown (N, C = ends). [ ]: non-standard residue; d: D form. The star is where a group is joined. hPhe(3,5-F2-4-CF3) = N[C@@H](CCc1cc(F)c(C(F)(F)F)c(F)c1)C(=O)O; hPhe(3-Cl-4-CF3) = N[C@@H](CCc1ccc(C(F)(F)F)c(Cl)c1)C(=O)O; X40 = CC(C)CN([C@@H](Cc1ccc(C(F)(F)F)cc1)C(=O)[*:2])[*:1]; NPrPhe(4-CF3) = CCCN[C@@H](Cc1ccc(C(F)(F)F)cc1)C(=O)O; X21 = Cc1ccc(C[C@@H](C(=O)[*:2])N(CC2CC2)[*:1])cc1; NEtPhe(4-Me) = CCN[C@@H](Cc1ccc(C)cc1)C(=O)O; NMePhe(4-Me) = CN[C@@H](Cc1ccc(C)cc1)C(=O)O; NMeGly(cPent) = CN[C@H](C(=O)O)C1CCCC1; Pro(4,4-F2) = O=C(O)[C@@H]1CC(F)(F)CN1; X8 = C[C@@](N[*:1])(C(=O)[*:2])C1CC1; NMeD = CN[C@@H](CC(=O)O)C(=O)O; NMeL = CN[C@@H](CC(C)C)C(=O)O; Morpholide = C1CN(*)CCO1; NMeA = CN[C@@H](C)C(=O)O; Ac5c = NC1(C(=O)O)CCCC1; Aze = O=C(O)[C@@H]1CCN1; NBuGly = CCCCNCC(=O)O; NEtG = CCNCC(=O)O; Sar = CNCC(=O)O

What was measured:
[1] = molecular target: GDP-bound KRAS wild-type protein (Homo sapiens, UniProt P01116); assay: Binding to KRAS by surface plasmon resonance (SPR), Single Cycle Kinetics; details: GDP-bound KRAS wild-type protein, read-out: KRAS KD
[2] = molecular target: GDP-bound NRAS wild-type protein (Homo sapiens, UniProt P01111); assay: Binding to NRAS by surface plasmon resonance (SPR), Single Cycle Kinetics; details: for NRAS/KRAS (ratio of KD value for NRAS to KD value for KRAS) / NRAS/KRAS (ratio of KD value with respect to NRAS to KD value with respect to KRAS): SPR, GDP-bound NRAS wild-type protein vs GDP-bound KRAS wild-type protein
[3] = molecular target: GDP-bound HRAS wild-type protein (Homo sapiens, UniProt P01112); assay: Binding to HRAS by surface plasmon resonance (SPR), Single Cycle Kinetics; details: for HRAS/KRAS (ratio of KD value for HRAS to KD value for KRAS) / HRAS/KRAS (ratio of KD value with respect to HRAS to KD value with respect to KRAS): SPR, GDP-bound HRAS wild-type protein vs GDP-bound KRAS wild-type protein
[4] = SPR Single Cycle Kinetics, 1:1 binding model
[5] = SPR, Single Cycle Kinetics, 1:1 binding model

GDP-bound NRAS wild-type protein, sequence (P01111 whole entry): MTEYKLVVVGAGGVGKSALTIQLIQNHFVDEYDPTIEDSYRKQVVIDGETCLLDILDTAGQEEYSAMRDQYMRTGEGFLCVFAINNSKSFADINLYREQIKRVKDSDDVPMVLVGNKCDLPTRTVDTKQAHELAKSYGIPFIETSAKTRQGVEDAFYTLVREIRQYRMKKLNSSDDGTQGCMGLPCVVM
GDP-bound HRAS wild-type protein, sequence (P01112 whole entry): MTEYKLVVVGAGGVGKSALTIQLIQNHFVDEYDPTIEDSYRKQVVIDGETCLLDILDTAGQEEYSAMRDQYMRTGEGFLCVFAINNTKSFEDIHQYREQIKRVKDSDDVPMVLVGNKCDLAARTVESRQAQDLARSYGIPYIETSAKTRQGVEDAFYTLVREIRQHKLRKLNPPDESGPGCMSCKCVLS
GDP-bound KRAS wild-type protein, sequence (P01116 whole entry): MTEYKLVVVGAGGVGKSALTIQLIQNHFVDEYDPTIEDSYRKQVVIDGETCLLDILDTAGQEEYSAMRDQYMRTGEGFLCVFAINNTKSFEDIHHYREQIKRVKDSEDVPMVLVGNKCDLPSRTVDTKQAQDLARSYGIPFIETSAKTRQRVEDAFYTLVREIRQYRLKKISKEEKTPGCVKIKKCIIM

SMILES | Kd [1, 4] [nM] | NRAS/KRAS (ratio of KD value for NRAS to KD value for KRAS) [2] | HRAS/KRAS (ratio of KD value for HRAS to KD value for KRAS) [3] | other results
CC[C@H](C)[C@@H]1NC(=O)[C@H](CC(C)C)N(C)C(=O)C[C@@H](C(=O)N2CCOCC2)N(C)C(=O)[C@H](C2CCCC2)N(C)C(=O)C2(CCCC2)NC(=O)[C@@H]2CCCN2C(=O)[C@H](CCc2ccc(C(F)(F)F)c(Cl)c2)NC(=O)CN(CC)C(=O)[C@H](Cc2ccc(C)cc2)N(CC)C(=O)CN(C)C(=O)CN(C)C1=O [PP0028] ([NMeL]I[Sar][Sar][NEtPhe(4-Me)][NEtG][hPhe(3-Cl-4-CF3)]P[Ac5c][NMeGly(cPent)][NMeD]-Morpholide; lactam N-11) | 2.4 | C (A compound having a KD ratio of 0.1 or more and less than 3 is denoted as C) | C (A compound having a KD ratio of 0.1 or more and less than 3 is denoted as C) | 
CCO[C@@H]1C[C@H]2C(=O)NC3(CCC3)C(=O)N(C)[C@@H](C3CCCC3)C(=O)N(C)[C@H](C(=O)N3CCOCC3)CC(=O)N(C)[C@@H](COC)C(=O)N[C@@H]([C@@H](C)CC)C(=O)N(C)CC(=O)N(C)[C@H]3CCCCCN(C3=O)[C@@H](Cc3ccc(C(F)(F)F)cc3)C(=O)N(C)CC(=O)N[C@@H](CCc3cc(F)c(C(F)(F)F)c(F)c3)C(=O)N2C1 [PP0689] | 0.3 |  |  | NRAS/KRAS (ratio of KD value with respect to NRAS to KD value with respect to KRAS) [2]: B (a compound having 3 or more and less than 10 is denoted as B); HRAS/KRAS (ratio of KD value with respect to HRAS to KD value with respect to KRAS) [3]: B (a compound having 3 or more and less than 10 is denoted as B)
CCO[C@@H]1C[C@H]2C(=O)NC3(CCC3)C(=O)N(C)[C@@H](C3CCCC3)C(=O)N(C)[C@H](C(=O)N(C)C)CC(=O)N(C)[C@@H](CC)C(=O)N[C@@H]([C@@H](C)CC)C(=O)N(C)CC(=O)N(C)[C@H]3CC/C=C(/C)CN(C3=O)[C@@H](Cc3ccc(C(F)(F)F)cc3)C(=O)N(C)CC(=O)N[C@@H](CCc3cc(F)c(C(F)(F)F)c(F)c3)C(=O)N2C1 [PP1334] |  |  |  | Kd [1, 5]: 11 nM; NRAS/KRAS (ratio of KD value for NRAS to KD value for KRAS) ([2]; KD ratio class): B (a compound having 3 or more and less than 10 is denoted as B); HRAS/KRAS (ratio of KD value for HRAS to KD value for KRAS) ([3]; KD ratio class): B (a compound having 3 or more and less than 10 is denoted as B)
CCCN1C(=O)CN(C)C(=O)CN(CC)C(=O)[C@H]([C@@H](C)CC)NC(=O)[C@H](CC(C)C)N(C)C(=O)C[C@@H](C(=O)N(C)C)NC(=O)[C@H](C2CCCC2)N(C)C(=O)C2(CCCC2)NC(=O)[C@@H]2CC(F)(F)CN2C(=O)[C@H](CCc2ccc(C(F)(F)F)c(Cl)c2)NC(=O)CN(C)C(=O)[C@@H]1Cc1ccc(C(F)(F)F)cc1 [PP0369] ([NMeL]I[NEtG][Sar][NPrPhe(4-CF3)][Sar][hPhe(3-Cl-4-CF3)][Pro(4,4-F2)][Ac5c][NMeGly(cPent)]D-NMe2; lactam N-11) | 1.9 | B (a compound having 3 or more and less than 10 is denoted as B) | C (A compound having a KD ratio of 0.1 or more and less than 3 is denoted as C) | 
CCCCN1CC(=O)N(C)[C@@H](Cc2ccc(C)cc2)C(=O)N(C)CC(=O)N[C@@H](CCc2ccc(C(F)(F)F)c(Cl)c2)C(=O)N2CCC[C@H]2C(=O)NC2(CCCC2)C(=O)N(C)[C@@H](C2CCCC2)C(=O)N(C)[C@H](C(=O)N2CCOCC2)CC(=O)N(C)[C@@H](CC(C)C)C(=O)N[C@@H]([C@@H](C)CC)C(=O)N(C)CC1=O [PP0021] ([NMeL]I[Sar][NBuGly][NMePhe(4-Me)][Sar][hPhe(3-Cl-4-CF3)]P[Ac5c][NMeGly(cPent)][NMeD]-Morpholide; lactam N-11) | 0.65 | C (A compound having a KD ratio of 0.1 or more and less than 3 is denoted as C) | C (A compound having a KD ratio of 0.1 or more and less than 3 is denoted as C) | 
CCO[C@@H]1C[C@H]2C(=O)NC3(CCC3)C(=O)N(C)[C@@H](C3CCCC3)C(=O)N(C)[C@H](C(=O)N(C)C)CC(=O)N(C)[C@@H](CC3CCCC3)C(=O)N[C@@H]([C@@H](C)CC)C(=O)N(C)CC(=O)N(C)[C@H]3C/C=C\CCN(C3=O)[C@@H](Cc3ccc(C)cc3)C(=O)N(C)CC(=O)N[C@@H](CCc3cc(C)c(C(F)F)c(C)c3)C(=O)N2C1 [PP2675] | 4.5 |  |  | NRAS/KRAS (ratio of KD value with respect to GDP-bound NRAS wild-type protein to KD value with respect to KRAS) ([2]; SPR KD ratio NRAS/KRAS, class symbols): A (a compound having 10 or more and less than 20 is denoted as A); HRAS/KRAS (ratio of KD value with respect to GDP-bound HRAS wild-type protein to KD value with respect to KRAS) ([3]; SPR KD ratio HRAS/KRAS, class symbols): A (a compound having 10 or more and less than 20 is denoted as A)
CCCN1C(=O)[C@@H]2CCN2C(=O)CN(C)C(=O)[C@H]([C@@H](C)CC)NC(=O)[C@H](CC(C)C)N(C)C(=O)C[C@@H](C(=O)N2CCOCC2)N(C)C(=O)[C@H](C2CCCC2)N(C)C(=O)[C@](C)(C2CC2)NC(=O)[C@@H]2CCCN2C(=O)[C@H](CCc2cc(F)c(C(F)(F)F)c(F)c2)NC(=O)CN(C)C(=O)[C@@H]1Cc1ccc(C(F)(F)F)cc1 [PP0791] ([NMeL]I[Sar][Aze][NPrPhe(4-CF3)][Sar][hPhe(3,5-F2-4-CF3)]P[X8][NMeGly(cPent)][NMeD]-Morpholide; lactam N-11) | 0.98 |  |  | NRAS/KRAS (ratio of KD value with respect to NRAS to KD value with respect to KRAS) [2]: C (A compound having a KD ratio of 0.1 or more and less than 3 is denoted as C); HRAS/KRAS (ratio of KD value with respect to HRAS to KD value with respect to KRAS) [3]: B (a compound having 3 or more and less than 10 is denoted as B)
CC[C@H](C)[C@@H]1NC(=O)[C@H](CC(C)C)N(C)C(=O)C[C@@H](C(=O)N2CCOCC2)N(C)C(=O)[C@H](C2CCCC2)N(C)C(=O)C2(CCCC2)NC(=O)[C@@H]2CCCN2C(=O)[C@H](CCc2ccc(C(F)(F)F)c(Cl)c2)NC(=O)CN(C)C(=O)[C@H](Cc2ccc(C)cc2)N(CC2CC2)C(=O)[C@@H]2CCN2C(=O)[C@H](C)N(C)C1=O [PP0057] ([NMeL]I[NMeA][Aze][X21][Sar][hPhe(3-Cl-4-CF3)]P[Ac5c][NMeGly(cPent)][NMeD]-Morpholide; lactam N-11) | 0.21 | C (A compound having a KD ratio of 0.1 or more and less than 3 is denoted as C) | B (a compound having 3 or more and less than 10 is denoted as B) | 
CCO[C@@H]1C[C@H]2C(=O)NC3(CCC3)C(=O)N(C)[C@@H](C3CCCC3)C(=O)N(C)[C@H](C(=O)N(C)CCOC)CC(=O)N(C)[C@@H](CC(C)C)C(=O)N[C@@H]([C@@H](C)CC)C(=O)N(C)CC(=O)N(C)[C@H]3C/C=C\CCN(C3=O)[C@@H](Cc3ccc(C(F)(F)F)cc3)C(=O)N(C)CC(=O)N[C@@H](CCc3cc(F)c(C(F)(F)F)c(F)c3)C(=O)N2C1 [PP1317] |  |  |  | Kd [1, 5]: 0.094 nM; NRAS/KRAS (ratio of KD value for NRAS to KD value for KRAS) ([2]; KD ratio class): A (a compound having 10 or more and less than 20 is denoted as A); HRAS/KRAS (ratio of KD value for HRAS to KD value for KRAS) ([3]; KD ratio class): B (a compound having 3 or more and less than 10 is denoted as B)
CC[C@H](C)[C@@H]1NC(=O)[C@H](CC(C)C)N(C)C(=O)C[C@@H](C(=O)N2CCOCC2)N(C)C(=O)[C@H](C2CCCC2)N(C)C(=O)C2(CCCC2)NC(=O)[C@@H]2CCCN2C(=O)[C@H](CCc2ccc(C(F)(F)F)c(Cl)c2)NC(=O)CN(C)C(=O)[C@H](Cc2ccc(C(F)(F)F)cc2)N(CC(C)C)C(=O)CN(C)C(=O)CN(C)C1=O [PP0121] ([NMeL]I[Sar][Sar][X40][Sar][hPhe(3-Cl-4-CF3)]P[Ac5c][NMeGly(cPent)][NMeD]-Morpholide; lactam N-11) | 2.1 | C (A compound having a KD ratio of 0.1 or more and less than 3 is denoted as C) | C (A compound having a KD ratio of 0.1 or more and less than 3 is denoted as C) | 
CCO[C@@H]1C[C@H]2C(=O)NC3(CC=CC3)C(=O)N(C)[C@@H](C3CCCC3)C(=O)N(CC)[C@H](C(=O)N3CCOCC3)CC(=O)N(C)[C@@H](CC(C)C)C(=O)N[C@@H]([C@@H](C)CC)C(=O)N(C)CC(=O)N(C)[C@H]3CCCCCN(C3=O)[C@@H](Cc3ccc(C(F)(F)F)cc3)C(=O)N(C)CC(=O)N[C@@H](CCc3cc(F)c(C(F)(F)F)c(F)c3)C(=O)N2C1 [PP0956] |  | A (a compound having 10 or more and less than 20 is denoted as A) | A (a compound having 10 or more and less than 20 is denoted as A) | Kd ([1]; SPR, Single Cycle Kinetics): 7.2 nM
CC[C@H](C)[C@@H]1NC(=O)[C@H](C)N(C)C(=O)C[C@@H](C(=O)N2CCOCC2)N(C)C(=O)[C@H](C2CCCC2)N(C)C(=O)C2(CCCC2)NC(=O)[C@@H]2CCCN2C(=O)[C@H](CCc2ccc(C(F)(F)F)c(Cl)c2)NC(=O)CN(C)C(=O)[C@H](Cc2ccc(C)cc2)N(CC)C(=O)CN(C)C(=O)CN(C)C1=O [PP0031] ([NMeA]I[Sar][Sar][NEtPhe(4-Me)][Sar][hPhe(3-Cl-4-CF3)]P[Ac5c][NMeGly(cPent)][NMeD]-Morpholide; lactam N-11) | 0.18 | B (a compound having 3 or more and less than 10 is denoted as B) | C (A compound having a KD ratio of 0.1 or more and less than 3 is denoted as C) | 
